Measured values reported in ChEMBL document CHEMBL2417471, “Synthesis and biological activity of (24E)- and (24Z)-26-hydroxydesmosterol” (Bioorg Med Chem, 2013).
Calls of active or inactive are those of the source. No cut-off for these calls is given here.

Experiments:
Type in all cases: cell-based
[1] = target: T1, Oxysterols receptor LXR-beta (Homo sapiens) (UniProt P55055); assay: Agonist activity at LXRbeta (unknown origin) transfected in mouse SN4741 cells at 10 uM after 24 hrs by luciferase reporter gene assay
T1 sequence (whole entry): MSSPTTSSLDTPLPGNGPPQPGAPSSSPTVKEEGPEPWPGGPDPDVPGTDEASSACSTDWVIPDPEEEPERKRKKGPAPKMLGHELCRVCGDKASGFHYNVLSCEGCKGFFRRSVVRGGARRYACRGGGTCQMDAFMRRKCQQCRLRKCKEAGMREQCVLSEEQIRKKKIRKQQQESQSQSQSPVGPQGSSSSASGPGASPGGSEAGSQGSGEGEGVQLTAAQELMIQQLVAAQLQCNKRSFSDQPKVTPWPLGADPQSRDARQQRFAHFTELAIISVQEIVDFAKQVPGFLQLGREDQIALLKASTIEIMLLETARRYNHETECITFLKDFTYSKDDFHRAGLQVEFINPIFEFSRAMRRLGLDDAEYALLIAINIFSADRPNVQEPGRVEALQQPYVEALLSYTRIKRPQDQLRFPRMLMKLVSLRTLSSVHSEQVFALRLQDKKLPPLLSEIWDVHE

SN4741 = assay: Agonist activity at LXR in mouse SN4741 cells assessed as upregulation of ABCA1 protein expression at 10 uM by immunoblot analysis
[2] = target: T2, Oxysterols receptor LXR-alpha (Homo sapiens) (UniProt Q13133); assay: Agonist activity at LXRalpha (unknown origin) transfected in mouse SN4741 cells at 10 uM after 24 hrs by luciferase reporter gene assay
T2 sequence (whole entry): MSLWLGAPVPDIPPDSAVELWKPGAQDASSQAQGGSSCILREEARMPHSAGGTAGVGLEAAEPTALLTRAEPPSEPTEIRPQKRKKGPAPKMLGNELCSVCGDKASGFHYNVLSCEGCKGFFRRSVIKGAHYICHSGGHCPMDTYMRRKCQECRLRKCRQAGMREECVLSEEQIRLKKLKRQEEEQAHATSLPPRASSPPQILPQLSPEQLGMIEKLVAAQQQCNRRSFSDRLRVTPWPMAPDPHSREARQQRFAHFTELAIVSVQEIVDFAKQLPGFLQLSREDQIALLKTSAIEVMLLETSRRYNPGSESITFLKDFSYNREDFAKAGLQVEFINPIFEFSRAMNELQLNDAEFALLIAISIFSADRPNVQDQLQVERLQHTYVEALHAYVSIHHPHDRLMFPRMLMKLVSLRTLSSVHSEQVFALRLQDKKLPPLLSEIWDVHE

SMILES | Activity [1] | Activity (SN4741) | Activity [2]
C/C(=C/CC[C@@H](C)[C@H]1CC[C@H]2[C@@H]3CC=C4C[C@@H](O)CC[C@]4(C)[C@H]3CC[C@]12C)CO | inactive | inactive | inactive
CC(C)=CCC[C@@H](C)[C@H]1CC[C@H]2[C@@H]3CC=C4C[C@@H](O)CC[C@]4(C)[C@H]3CC[C@]12C | Active | Active | Active
C/C(=C\CC[C@@H](C)[C@H]1CC[C@H]2[C@@H]3CC=C4C[C@@H](O)CC[C@]4(C)[C@H]3CC[C@]12C)CO | inactive | inactive | inactive
